Source: patent US11970583B2, “Therapeutic dendrimer” (Starpharma Pty Ltd., priority 2018, dated 2024)
“Also recorded” adds a separate entry of the source. Like-named read-outs stand apart in the source and are kept apart here.

Assays:
[1] = cited from earlier work
[2] = cited from earlier work; remark: listed apart in the source
[3] = Single-dose toxicokinetic study, intravenous bolus, free (unconjugated) cabazitaxel in plasma; format: in vivo, Sprague Dawley Crl:CD (SD) rats; settings: for Cmax free (unconjugated) Cabazitaxel: i.v. bolus; for % JEVTANA ® brand cabazitaxel dose: relative to JEVTANA 2.5 mg/kg
Procedure: A single-dose toxicokinetic study of SPL-9048 and SPL-9005 was carried out by intravenous bolus injection in rats with a 21-day observation period. The control, 0.9% sodium chloride, was prepared and dispensed on the day of dosing. SPL-9048 and SPL-9005 were prepared at appropriate concentrations to meet dose level requirements. The dosing formulations were prepared and dispensed on each day of dosing and were used within 3 hours of preparation. The required amount of test article was weighed out and dissolved in a suitable volume of normal saline with gentle swirling and the pH was recorded. Cabazitaxel (JEVTANA® brand cabazitaxel) was prepared at appropriate concentration to meet dose level requirements. […] This stock solution was further diluted with normal saline to produce the final dosing concentration within 30 minutes.
The animals used were male and female Sprague Dawley Crl:CD (SD) rats. The animals were 10 to 14 weeks old and weighed between 327 and 565 g for males and 212 and 316 g for females at initiation of dosing. Animals were acclimated to their designated housing for at least 4 days before the first day of dosing. Animals were assigned to groups by a stratified randomization scheme designed to achieve similar group mean body weights. Males and females were randomised separately. Animals in poor health or at extremes of body weight ranges were not assigned to groups. PMI Nutrition International Certified Rodent Chow No. 5CR4 was provided ad libitum throughout the study except during designated procedures. The same diet in meal form was also provided, as needed. Municipal tap water, after treatment by reverse osmosis and ultraviolet irradiation, was freely available to each animal via an automatic watering system, except during designated procedures. Water bottles were also provided, as required. Animal were socially housed for psychological/environmental enrichment and were provided with items such as a chewing object, except when interrupted by study procedures/activities. Veterinary care was available throughout the course of the study.
The test and control articles were administered to the appropriate animals at the amounts indicated in the table below via a single intravenous (slow bolus) injection to the tail vein.
The dose volume for each animal was based on the most recent body weight measurement. The animals were temporarily restrained for dose administration and were not sedated. The doses were given using a syringe with attached needle. The first day of dosing for each group was designated as Day 1. The comparator dosing formulation (JEVTANA® brand Cabazitaxel) and test articles were maintained between 15 and 30° C. during dosing.
Toxicokinetic parameters were estimated using Phoenix pharmacokinetic software. A non-compartmental approach consistent with the intravenous route of administration was used for parameter estimation.

[4] = Toxicology study in rats at 1 mg/kg (neutropenia); format: in vivo; settings: for neutropenia (FIG. 6), day 7 in particular: male and female rats
From the text: References to amounts dosed in mg/kg for the dendrimeric compound are to the amounts of Cabazitaxel that may theoretically be released by the dendrimer.

[5] = tested on: MDA-MB-231 tumour xenografts
Procedure: Cabazitaxel was prepared fresh for each dosing day.
Tumour volumes were determined twice weekly and were expressed as mean tumour volume (±SEM).
The data represent the mean percent weight change from baseline (Day 1) for each group; bars SEM.

[6] = 2.5 mg/kg
[7] = tested on: progressive metastatic disease; assay: Phase 1 dose escalation study: treatment response and biomarkers; format: in vivo, human patients
Procedure: Biomarker, PK and other data were collected from patients enrolled in the study. Patients were dosed every 3 weeks, over 1 hour using an infusion pump. Patients all had progressive metastatic disease. The patient population was heavily pre-treated with a range of chemotherapeutic agents as described in the below table.

[8] = tested on: DU145 tumour xenografts; assay: DU145 mouse xenograft prostate cancer model study; format: in vivo, Male SCID mice
Procedure: Cabazitaxel was prepared fresh for each dosing day. […] Dosing solutions at 4.5 and 5.5 mg/mL were prepared from this working stock immediately prior to injection.
Male SCID mice (age 7-8) weeks were inoculated subcutaneously in the flank with 3×10^6 DU145 cells in PBS:Matrigel (1:1). Mice were weighed and tumours measured 2-3 times weekly using electronic callipers. […] Treatment groups were saline, Cabazitaxel (9 and 11 mg/kg), SPL-9048 (9 mg/kg) and SPL-9005 (25 mg/kg). […] The experiment was ended on Day 126, or earlier if an ethical endpoint was met. Survival curves were analysed using the Mantel Cox log rank test.
Tumour volumes were determined 2-3 times weekly and are expressed as mean tumour volume (±SEM).
Graphs are shown for each group until fewer than 6 animals remained in each group.

[9] = Stability in solution (precipitation); format: physicochemical; settings: compared with SPL9049
[10] = tested on: CAPAN-1 tumour xenografts; assay: CAPAN-1 mouse xenograft pancreatic cancer model study; format: in vivo, Female NOD-SCID Interleukin-2 receptor gamma chain null mice; settings: for Tumour Growth inhibition (%): Day 37, Gemcitabine 80 mg/kg i.p., ABRAXANE 40 mg/kg i.v., SPL9048 […] i.v.; for Tumour Growth inhibition (%) / anti-tumour efficacy (mean tumour volume, FIG. 7): dosing days 1, 8, 15; for anti-tumour efficacy (mean tumour volume, FIG. 7): study to day 107
Procedure: Gemcitabine and ABRAXANE® were obtained from the Peter MacCallum Cancer Centre pharmacy, and were dissolved in saline solution immediately prior to dosing.
Female NOD-SCID Interleukin-2 receptor gamma chain null mice (aged 9 weeks) were inoculated subcutaneously on the flank with 5×10^6 CAPAN-1 cells in PBS:Matrigel (1:1).
Tumour growth data was analysed in GraphPad Prism for ANOVA followed by Dunnett's post ad-hoc test.

[11] = Separate tolerability study in female SCID mice; format: in vivo; settings: 25 mg/kg Cabazitaxel equivalent

## CO[C@H]1C(=O)[C@]2(C)[C@@H](OC)C[C@H]3OC[C@@]3(OC(C)=O)[C@H]2[C@H](OC(=O)c2ccccc2)[C@]2(O)C[C@H](OC(=O)[C@H](O)[C@@H](NC(=O)OC(C)(C)C)c3ccccc3)C(C)=C1C2(C)C [Cabazitaxel]
[1]; 25-mg/m2 dose
  patients with febrile neutropenia: 4%
  patients with prolonged grade 4 neutropenia: 4%
[1]; 25-mg/m^2 dose
  AUC concentration: 642±320 mcg/L per hour
  Cmax: 535 ± 305 µg/L
[1]; in vivo
  dose eliminated within 2 weeks: Approximately 80%
  patients with diarrhea: 56%
  patients with fatigue: 36%
  patients with grade 1 hypersensitivity reactions (flushing, dizziness, chest tightness): 8%
  patients with nausea: 40%
  patients with neurotoxicity: 36%
  patients with vomiting: 16%
[1]; triphasic model, plasma
  intermediate elimination phase, average t½: 1.3 ± 0.6 h
  prolonged terminal elimination phase, average t½: 77.3 ± 45.5 h
  rapid initial elimination phase, average terminal half-life t½: 2.6 ± 1.4 min
[2]; 25 mg/m2, 1-hour IV, n=67
  mean Cmax: 226 ng/mL
[2]; 25 mg/m2, 1-hour IV
  Tmax (end of infusion): 1 h
  mean AUC: 991 ng·h/mL
[2]; in vivo
  patients with Grade 3 or 4 febrile neutropenia: 8%
  patients with neutropenia (all grades): 94%
[3]; 2.5 mg/kg
  Cabazitaxel measurability in plasma over time: not measurable more than 24 hours after
[3]; 2.5 mg/kg drug eq., males
  AUC0-t free Cabazitaxel: 679.99 ng·h/mL
  Cmax free (unconjugated) Cabazitaxel: 801.05 ng/mL
  % JEVTANA ® brand cabazitaxel dose: 100%
[3]; Sprague Dawley Crl:CD (SD), rat, plasma, intravenous, 2.5 mg/kg
  Cmax: 801 ng/mL
[3]; male, Sprague Dawley Crl:CD (SD), rat, plasma, intravenous, 2.5 mg/kg, males
  Tmax: 2 min
[4]
  rebound after neutropenia at day 14: substantial rebound at day 14
  neutropenia (FIG. 6), day 7 in particular: dip in values
[5]; 9 mg/kg i.v. days 1, 8, 15
  tumours reaching ethical tumour volume endpoint by day 98: 9 of 10
[6]; by Day 2 through Day 7, males and females
  test article related hematology changes: generally greater

## BHALys[Lys]32[α-DGA-Cabazitaxel]32†[ε-PEG˜2100]32‡ [SPL9048]
[3]; 1 mg/kg drug eq., males
  AUC0-t free Cabazitaxel: 445.00 ng·h/mL
  Cmax free (unconjugated) Cabazitaxel: 14.13 ng/mL
  % JEVTANA ® brand cabazitaxel dose: 65%
[3]; 2.5 mg/kg drug eq., males
  AUC0-t free Cabazitaxel: 1239.99 ng·h/mL
  Cmax free (unconjugated) Cabazitaxel: 36.89 ng/mL
  % JEVTANA ® brand cabazitaxel dose: 182%
[4]
  rebound after neutropenia at day 14: virtually no rebound
  neutropenia (FIG. 6), day 7 in particular: lesser/no dip in values
[5]; 9 and 10 mg/kg
  tolerability (body weight, FIG. 4): overall well tolerated
[5]; 9 and 10 mg/kg i.v. days 1, 8 and 15
  antitumour efficacy (mean tumour volume, FIG. 3): complete tumour regression
[5]; both doses (9 and 10 mg/kg)
  survival: significantly extended survival beyond that of Cabazitaxel
[6]
  toxicity overall: Reduced toxicity
[7]; FIGS. 8 and 9
  dose at which biomarker response occurs: ≥ 10 mg/m^2
[7]; ovarian cancer, after two doses at 15 mg/m^2
  CA-125 (FIG. 9): declining
[7]; patient: digital papillary adenocarcinoma (stage IV), 2 to 15 mg/m^2, 12 cycles
  Stable disease: Stable disease > 33 weeks.
[7]; patient: ovarian (stage IV), 15 to 20 mg/m^2, 7 cycles, over 15 weeks
  CA-125 decline: CA-125 declining (60%) from 652
[7]; patient: ovarian (stage IV), from 652, over 15 weeks, after one cycle at 15 mg/m^2
  CA-125 after decline: to 255 kU/L (over 15 weeks) after
[7]; patient: pancreatic adenocarcinoma (stage IV), 20 mg/m^2, 3 cycles, after one cycle
  CA 19-9 decline: CA 19-9 declining (28%) from 177
[7]; patient: pancreatic adenocarcinoma (stage IV), 20 mg/m^2, from 177 baseline, after one cycle
  CA 19-9 after decline: baseline to 127 kU/L after one
[7]; patient: pancreatic adenocarcinoma, 20 mg/m^2, 1 cycle
  CA 19-9: Stable CA 19-9, abdominal pain
[7]; patient: pancreatic adenocarcinoma, 20 mg/m^2, after one cycle
  abdominal pain and opioid treatment: subsided and cessation of opioid
[7]; patient: prostate (stage III), 5 to 20 mg/m^2, 13 cycles
  Stable disease: Stable disease > 35 weeks.
[7]; patient: prostate (stage III), 5 to 20 mg/m^2, declined from 106 over 12 weeks
  PSA after decline: PSA declined from 106 to 25 μg/L
[7]; patient: prostate, 20 mg/m^2, 5 cycles
  Stable disease: Stable disease > 6 weeks
[7]; patient: prostate, 20 mg/m^2, 5 cycles, from 262, in 3 weeks after three cycles
  PSA after decline: 86 μg/L (in 3 weeks) after three
[7]; patient: prostate, 5 cycles, at 5 mg/m^2
  PSA stability: Preliminary signs of PSA stability
[7]; prostate cancer patients, multiple doses at 10 mg/m^2, continuing at 20 mg/m^2
  PSA (FIG. 8): declining
[8]; 9 mg/kg i.v. Days 1, 8 and 15, to Day 126
  antitumour efficacy (mean tumour volume, FIG. 1): complete tumour regression with no regrowth observed in any of the animals on Day 126
[8]; male mice, 9 mg/kg i.v. Days 1, 8, 15, 9 mg/kg
  tolerability (body weight, FIG. 2): overall well tolerated; also recorded: better tolerated than SPL9005
[8]; male mice, 9 mg/kg, on Day 20
  max weight loss: −10%
[9]
  stability in solution (e.g. with regard to precipitation): increased stability in solution
[10]
  Tumour Growth inhibition (%): 107%
  anti-tumour efficacy (mean tumour volume, FIG. 7): complete regression of CAPAN-1 tumours for the duration of the study
[10]; […] i.v. vs 40 mg/kg i.v.
  tumour growth inhibition compared with ABRAXANE: more effectively than ABRAXANE®

## BHALys[Lys]32[α-TDA-Cabazitaxel]32 †[ε-PEG˜2100]32‡ [SPL9005]
[11]
  mean weight loss: below 10%
[3]; 1 mg/kg drug eq., males
  AUC0-t free Cabazitaxel: 202.94 ng·h/mL
  Cmax free (unconjugated) Cabazitaxel: 4.41 ng/mL
  % JEVTANA ® brand cabazitaxel dose: 30%
[3]; 2.5 mg/kg drug eq., males
  AUC0-t free Cabazitaxel: 548.96 ng·h/mL
  Cmax free (unconjugated) Cabazitaxel: 9.29 ng/mL
  % JEVTANA ® brand cabazitaxel dose: 81%
[8]; 25 mg/kg, after day 40
  male mice recovered to +5/10% starting weight: 2/10
[8]; 25 mg/kg, after third dose, approx. day 25
  male mice with >20% weight loss: 8/10

## Nc1ccn([C@@H]2O[C@H](CO)[C@@H](O)C2(F)F)c(=O)n1 [Gemcitabine, reference compound]
[10]
  Tumour Growth inhibition (%): 40%
  anti-tumour efficacy (mean tumour volume, FIG. 7): Neither Gemcitabine or ABRAXANE® were effective in this model
